Measurements: US5302610A, “Renal-selective biphenylmethyl imidazole angiotensin II antagonists for treatment of hypertension” (G. D. Searle & Co., priority 1991, dated 1994)

How the values were obtained:
AII receptor = test: Assay C: In Vivo Intraduodenal Pressor Assay Response for AII Antagonists; set-up: species or system male Sprague-Dawley rats
Method: The in vivo AII receptor antagonist activity of Example #5 compound was examined in ganglion-blocked male Sprague-Dawley rats (Harlan Sprague-Dawley, Inc.), weighing 300-400 g, anesthetized with 100 mg/kg i.p. Inactin. Catheters (PE-50) were implanted in a femoral artery and vein to measure mean arterial pressure and to administer compounds, respectively. A tracheal catheter maintained airway patency. For intravenous experiments, autonomic neurotransmission was blocked by treatment with mecamylamine (3 mg/kg i.v.) and atropine (400 μg/kg i.v.). AII (30 ng/kg i.v., 20-25 μl volume) was administered four times at 10 minute intervals to establish a reproducible control pressor response. Example #5 compound was then administered at 1, 3 and 10 mg/kg in separate groups of rats as an intravenous bolus (0.2 ml volume) before rechallenging with AII (30 ng/kg, 20-25 μl volume) for the following 2 hours. For intraduodenal experiments, rats were anesthetized as above, but ganglion blockade was not performed. AII was administered at 100 ng/kg i.v. (20-25 μl volume), and was administered at 10, 30 and 100 mg/kg in separate groups of rats as an intraduodenal bolus (0.2 ml volume). […] The response to AII was calculated as percent of the control response and then the percent inhibition was calculated as 100 minus the percent control response. Duration of action of a test compound was defined as the time from peak percent inhibition to 50% of peak. The test compound was tested in two rats and the values for the two rats were averaged.

[1] = system: vascular smooth muscle, AII response (rabbit aortic rings); test: Assay B: In Vitro Vascular Smooth Muscle Response for AII (rabbit aortic rings); assay type: cell-based, rabbit (male New Zealand white); settings: Oryctolagus cuniculus, 5 min, antagonist 10^-5 M, three rabbits, read-out: Assay B PA2 (converted)
Method: Compound of Example #5 was tested for AII antagonist activity in rabbit aortic rings. Male New Zealand white rabbits (2-2.5 kg) were sacrificed using an overdose of pentobarbital and exsanguinated via the carotid arteries. The thoracic aorta was removed, cleaned of adherent fat and connective tissue and then cut into 3-mm ring segments. The endothelium was removed from the rings by gently sliding a rolled-up piece of filter paper into the vessel lumen. The rings were then mounted in a water-jacketed tissue bath, maintained at 37° C., between moveable and fixed ends of a stainless steel wire with the moveable end attached to an FT03 Grass transducer coupled to a Model 7D Grass Polygraph for recording isometric force responses. The bath was filled with 20 ml of oxygenated (95% oxygen/5% carbon dioxide) Krebs solution of the following composition […]: 130 NaCl, 15 NaHCO3, 15 KCl, 1.2 NaH2 PO4, 1.2 MgSO4, 2.5 CaCl2, and 11.4 glucose. The preparations were equilibrated for one hour before approximately one gram of passive tension was placed on the rings. Angiotensin II concentration-response curves were then recorded (3×10^-10 to 1×10^-5 M). […] The effectiveness of the test compound was expressed in terms of pA2 values and were calculated according to H. O. Schild [Br. J. Pharmacol. Chemother., 189-206 (1947)]. […] The test compound was evaluated in aorta rings from three rabbits.

SMILES: CCCCc1nc(Cl)c(CO)n1Cc1ccc(-c2ccccc2C(=O)O)cc1 [Example 5]
- % Control of AII Pressor Response (AII receptor; 10 mg/kg intraduodenal, 1 min): 100%
- % Control of AII Pressor Response (AII receptor; 10 mg/kg intraduodenal, 5 min): 94%
- % Control of AII Pressor Response (AII receptor; 10 mg/kg intraduodenal, 10 min): 99%
- % Control of AII Pressor Response (AII receptor; 10 mg/kg intraduodenal, 20 min): 85%
- % Control of AII Pressor Response (AII receptor; 10 mg/kg intraduodenal, 30 min): 91%
- % Control of AII Pressor Response (AII receptor; 10 mg/kg intraduodenal, 40 min): 91%
- % Control of AII Pressor Response (AII receptor; 10 mg/kg intraduodenal, 50 min): 95%
- % Control of AII Pressor Response (AII receptor; 10 mg/kg intraduodenal, 60 min): 93%
- % Control of AII Pressor Response (AII receptor; 10 mg/kg intraduodenal, 75 min): 95%
- % Control of AII Pressor Response (AII receptor; 30 mg/kg intraduodenal, 1 min): 48%
- % Control of AII Pressor Response (AII receptor; 30 mg/kg intraduodenal, 5 min): 48%
- % Control of AII Pressor Response (AII receptor; 30 mg/kg intraduodenal, 10 min): 44%
- % Control of AII Pressor Response (AII receptor; 30 mg/kg intraduodenal, 20 min): 28%
- % Control of AII Pressor Response (AII receptor; 30 mg/kg intraduodenal, 30 min): 34%
- % Control of AII Pressor Response (AII receptor; 30 mg/kg intraduodenal, 40 min): 42%
- % Control of AII Pressor Response (AII receptor; 30 mg/kg intraduodenal, 50 min): 41%
- % Control of AII Pressor Response (AII receptor; 30 mg/kg intraduodenal, 60 min): 53%
- % Control of AII Pressor Response (AII receptor; 30 mg/kg intraduodenal, 75 min): 74%
- % Control of AII Pressor Response (AII receptor; 100 mg/kg intraduodenal, 1 min): 28%
- % Control of AII Pressor Response (AII receptor; 100 mg/kg intraduodenal, 5 min): 19%
- % Control of AII Pressor Response (AII receptor; 100 mg/kg intraduodenal, 10 min): 15%
- % Control of AII Pressor Response (AII receptor; 100 mg/kg intraduodenal, 20 min): 14%
- % Control of AII Pressor Response (AII receptor; 100 mg/kg intraduodenal, 30 min): 9%
- % Control of AII Pressor Response (AII receptor; 100 mg/kg intraduodenal, 40 min): 5%
- % Control of AII Pressor Response (AII receptor; 100 mg/kg intraduodenal, 50 min): 13%
- % Control of AII Pressor Response (AII receptor; 100 mg/kg intraduodenal, 60 min): 10%
- % Control of AII Pressor Response (AII receptor; 100 mg/kg intraduodenal, 75 min): 13%
- Kb [1]: 74.1 nM
